Results on 37 compounds are retold here after publication PMC3320663 (Chemmedchem, 2011).

The target in this experiment is T1, TbTryS (Trypanosoma brucei, UniProt Q586P2).
T1 sequence (Q586P2 1-627): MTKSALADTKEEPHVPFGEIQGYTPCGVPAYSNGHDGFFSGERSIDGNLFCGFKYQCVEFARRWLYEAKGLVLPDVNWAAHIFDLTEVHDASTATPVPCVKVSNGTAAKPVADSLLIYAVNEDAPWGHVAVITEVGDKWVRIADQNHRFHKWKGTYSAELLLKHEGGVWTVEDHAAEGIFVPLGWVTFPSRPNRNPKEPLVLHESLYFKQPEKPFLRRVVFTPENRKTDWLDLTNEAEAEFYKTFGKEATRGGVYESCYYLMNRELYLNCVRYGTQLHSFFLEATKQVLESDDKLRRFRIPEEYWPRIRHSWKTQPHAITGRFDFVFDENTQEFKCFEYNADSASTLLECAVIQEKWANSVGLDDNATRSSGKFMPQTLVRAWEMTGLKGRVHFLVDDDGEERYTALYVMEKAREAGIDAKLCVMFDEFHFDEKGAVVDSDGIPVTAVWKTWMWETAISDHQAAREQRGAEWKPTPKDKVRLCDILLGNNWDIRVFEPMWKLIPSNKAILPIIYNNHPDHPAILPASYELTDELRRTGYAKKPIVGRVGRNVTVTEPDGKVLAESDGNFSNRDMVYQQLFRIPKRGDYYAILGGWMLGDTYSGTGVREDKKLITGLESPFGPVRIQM
Put plainly: Trypanothione synthetase. The settings on record: for LE (ligand efficiency): calculated as −0.6×ln(IC50)/(heavy atom count); for loss in activity (heterocycle at indazole position 3): indazole series, initial compound 60. It counts as biochemical.

Like-named read-outs stand apart in the source and are kept apart here. Where only a bound is given, the exact number is not on record here.

In the case of “3-(tert-Butylsulfonylmethyl)-1-(3-fluorophenyl)-1H-indazole [Compound 73]”, the “LE (ligand efficiency)” value is reported as 0.41. For the same compound, the IC50 (read-out: TbTryS IC50) was found to be 0.08 µM.

Take `CC(C)(C)S(=O)(=O)Cc1nc(-c2ccccc2)cs1` [Compound 3, 2-((tert-Butylsulfonyl)methyl)-4-(phenyl)thiazole]: for the setting “TbTryS IC50”, 1.2 µM corresponded to half-maximal inhibition (IC50).

As for `Cc1ccccc1-c1csc(CS(=O)(=O)C(C)(C)C)n1` [Compound 4, 2-((tert-Butylsulfonyl)methyl)-4-(2-methylphenyl)thiazole], the IC50 (TbTryS IC50) came out at 3.2 µM.

For `CC(C)(C)S(=O)(=O)Cc1nc(-c2ccccc2F)cs1` [Compound 5, 2-((tert-Butylsulfonyl)methyl)-4-(2-fluorophenyl)thiazole], inhibition (TbTryS IC50) was half-maximal at 1.1 µM (IC50).

For `COc1cccc(-c2csc(CS(=O)(=O)C(C)(C)C)n2)c1` [Compound 6, 2-((tert-Butylsulfonyl)methyl)-4-(3-methoxyphenyl)thiazole], the “loss in potency relative to unsubstituted compound 3” value stood at 10 fold. The same compound returned an IC50 (TbTryS IC50) of 12 µM.

The compound `CC(C)(C)S(=O)(=O)Cc1nc(-c2cccc(C(F)(F)F)c2)cs1` [Compound 7, 2-(tert-Butylsulfonylmethyl)-4-(3-trifluoromethylphenyl)thiazole] displayed an IC50 (TbTryS IC50) of 1.1 µM.

`CC(C)(C)S(=O)(=O)Cc1nc(-c2cccc(F)c2)cs1` [Compound 9, 2-(tert-Butylsulfonylmethyl)-4-(3-fluorophenyl)thiazole] gave an IC50 (TbTryS IC50) of 0.4 µM.

Turning to `CC(C)(C)C(=O)Cn1nnc(-c2ccccc2)n1` [Compound 14, 3,3-Dimethyl-1-(5-phenyl-2H-tetrazol-2-yl)butan-2-one], the “LE (ligand efficiency)” value is 0.39. Where the note is “TbTryS IC50”, this compound came in with an IC50 of 8.8 µM.

With `CC(C)(C)C(=O)Cn1nnc(-c2cccc(F)c2)n1` [Compound 17, 1-(5-(3-Fluorophenyl)-2H-tetrazol-2-yl)-3,3-dimethylbutan-2-one], the IC50 (TbTryS IC50) is 1.5 µM.

For the compound `CC(C)(C)C(=O)Cn1nnc(-c2cc(F)cc(F)c2)n1` [Compound 19, 1-(5-(3,5-Difluorophenyl)-2H-tetrazol-2-yl)-3,3-dimethylbutan-2-one], inhibition (TbTryS IC50) was half-maximal at 1.9 µM (IC50).

For `CC(C)(C)C(=O)Cn1nnc(-c2cc(Cl)cc(Cl)c2)n1` [Compound 20, 1-(5-(3,5-Dichlorophenyl)-2H-tetrazol-2-yl)-3,3-dimethylbutan-2-one], the “gain in potency relative to unsubstituted scaffold 14” value is listed as 25 fold and the “LE (ligand efficiency)” value was 0.45. Moreover, the IC50 (TbTryS IC50) came out at 0.3 µM.

On to `CC(=O)Cn1nnc(-c2cc(Cl)cc(Cl)c2)n1` [Compound 21, 1-(5-(3,5-Dichlorophenyl)-2H-tetrazol-2-yl)propan-2-one], for which inhibition (TbTryS IC50) was half-maximal at 6.5 µM (IC50).

As for `CCC(=O)Cn1nnc(-c2cc(Cl)cc(Cl)c2)n1` [Compound 22, 1-(5-(3,5-Dichlorophenyl)-2H-tetrazol-2-yl)butan-2-one], where the note is “TbTryS IC50”, the IC50 was 2.7 µM.

`CN(C)C(=O)Cn1nnc(-c2cc(Cl)cc(Cl)c2)n1` [Compound 23, 2-(5-(3,5-Dichlorophenyl)-2H-tetrazol-2-yl)-N,N-dimethylacetamide]: the midpoint of inhibition (TbTryS IC50), the IC50, lay at 0.6 µM.

Compound `O=C(Cn1nnc(-c2cc(F)cc(F)c2)n1)c1ccccc1` [Compound 24, 2-(5-(3,5-Difluorophenyl)-2H-tetrazol-2-yl)-1-phenylethanone] registered an IC50 (TbTryS IC50) of 45 µM.

With `CCN(CC)C(=O)Cn1nc(C(F)(F)F)c2c1CCCC2` [Compound 35, N,N-Diethyl-2-(3-(trifluoromethyl)-4,5,6,7-tetrahydro-1H-indazol-1-yl)acetamide], the “TbTryS activity in words” value is listed as “retained some inhibitory activity”. Moreover, the IC50 (TbTryS IC50) is 15 µM.

For `Cc1nn(-c2ccccc2)nc1CNS(=O)(=O)C(C)(C)C` [Compound 42, 2-Methyl-N-((5-methyl-2-phenyl-2H-1,2,3-triazol-4-yl)methyl)propane-2-sulfonamide], the IC50 (TbTryS IC50) is 37 µM.

In turn, `CC(C)(C)C(=O)Cn1nc(-c2ccccc2)c2ccccc21` [Compound 60, 1-(3-Phenyl-1H-indazol-1-yl)-3,3-dimethylbutan-2-one] returned an IC50 (TbTryS IC50) of 0.15 µM.

In the case of `CC(C)(C)C(=O)Cn1nc(-c2ccc(Cl)cc2)c2ccccc21` [Compound 61, 1-(3-(4-Chlorophenyl)-1H-indazol-1-yl)-3,3-dimethylbutan-2-one], the IC50 (TbTryS IC50) was > 100 µM.

`CC(C)(C)C(=O)Cn1nc(-c2cccc3[nH]ccc23)c2ccccc21` [Compound 62, 1-(3-(1H-Indol-4-yl)-1H-indazol-1-yl)-3,3-dimethylbutan-2-one] gave an IC50 (TbTryS IC50) of 3.7 µM.

Regarding `Cn1ccc2c(-c3nn(CC(=O)C(C)(C)C)c4ccccc34)cccc21` [Compound 63, 3,3-Dimethyl-1-(3-(1-methyl-1H-indol-4-yl)-1H-indazol-1-yl)butan-2-one], the IC50 (TbTryS IC50) is > 100 µM.

For `CC(C)(C)C(=O)Cn1nc(-c2ccc3ccccc3c2)c2ccccc21` [Compound 64, 3,3-Dimethyl-1-(3-(naphthalen-2-yl)-1H-indazol-1-yl)butan-2-one], for the setting “TbTryS IC50”, the IC50 was > 100 µM.

Where the note is “TbTryS IC50”, `CC(C)(C)C(=O)Cn1nc(-c2ccncc2)c2ccccc21` [Compound 65, 3,3-Dimethyl-1-(3-(pyridin-4-yl)-1H-indazol-1-yl)butan-2-one] yielded an IC50 of 0.3 µM.

Regarding `CC(C)(C)C(=O)Cn1nc(-c2ccco2)c2ccccc21` [Compound 66, 1-(3-(Furan-2-yl)-1H-indazol-1-yl)-3,3-dimethylbutan-2-one], the “loss in activity (heterocycle at indazole position 3)” value worked out at 10 fold. The compound further came in with an IC50 (TbTryS IC50) of 1.9 µM.

As to `CC(C)(C)C(=O)Cn1nc(-c2cccnc2)c2ccccc21` [Compound 67, 1-(3-(3-Pyridyl)-1H-indazol-1-yl)-3,3-dimethylbutan-2-one], the “LE (ligand efficiency)” value is listed as 0.35 and the “loss in activity (heterocycle at indazole position 3)” value was 10 fold. Further, the IC50 (TbTryS IC50) was found to be 3 µM.

For the compound `CC(C)(C)C(=O)Cn1nc(-c2ccsc2)c2ccccc21` [Compound 68, 3,3-Dimethyl-1-(3-(thiophen-3-yl)-1H-indazol-1-yl)butan-2-one], the “LE (ligand efficiency)” value is given as 0.42. Where the note is “TbTryS IC50”, this compound gave an IC50 of 0.4 µM.

In the case of `CC(C)Cn1cc(-c2nn(CC(=O)C(C)(C)C)c3ccccc23)cn1` [Compound 69, 1-(3-(1-Isobutyl-1H-pyrazol-4-yl)-1H-indazol-1-yl)-3,3-dimethylbutan-2-one], the IC50 (TbTryS IC50) was > 100 µM.

Take `CC(C)(C)C(=O)Cn1nc(-c2cccc(Cl)c2)c2ccccc21` [Compound 70, 1-(3-(3-Chlorophenyl)-1H-indazol-1-yl)-3,3-dimethylbutan-2-one]: the “LE (ligand efficiency)” value is given as 0.39. This compound also showed an IC50 (TbTryS IC50) of 0.35 µM. Moreover, the midpoint of inhibition (TbTryS IC50, values in running text), the IC50, lay at 0.354 µM.

As to `CC(C)(C)S(=O)(=O)Cc1nn(-c2ccccc2)c2ccccc12` [Compound 72, 3-(tert-Butylsulfonylmethyl)-1-phenyl-1H-indazole], the “LE (ligand efficiency)” value was 0.40. For the same compound, the IC50 (TbTryS IC50) turned out to be 0.22 µM.

For the compound `CC(C)(C)S(=O)(=O)Cn1nc(-c2cccc(F)c2)c2ccccc21` [Compound 74, 1-(tert-Butylsulfonylmethyl)-3-(3-fluorophenyl)-1H-indazole], the “LE (ligand efficiency)” value is listed as 0.40. Moreover, the half-inhibitory concentration (IC50) (TbTryS IC50) was determined as 0.12 µM.

Take `Fc1cccc(-c2nn(Cc3ccccn3)c3ccccc23)c1` [Compound 75, 3-(3-Fluorophenyl)-1-(pyridin-2-ylmethyl)-1H-indazole]: the “LE (ligand efficiency)” value is 0.33. Where the note is “TbTryS IC50”, this compound had an IC50 of 2.9 µM.

Take `Fc1cccc(-c2nn(Cc3cccnc3)c3ccccc23)c1` [Compound 76, 3-(3-Fluorophenyl)-1-(pyridin-3-ylmethyl)-1H-indazole]: the “LE (ligand efficiency)” value is on record as 0.32. The same compound came in with an IC50 (TbTryS IC50) of 4.5 µM.

With `Cc1nc(Cn2nc(-c3cccc(F)c3)c3ccccc32)c(C)o1` [Compound 77, 4-((3-(3-Fluorophenyl)-1H-indazol-1-yl)methyl)-2,5-dimethyloxazole], the “LE (ligand efficiency)” value is 0.26. Also, the IC50 (TbTryS IC50) turned out to be 28 µM.

`Fc1cccc(-c2nn(Cc3cc(-c4ccccc4)on3)c3ccccc23)c1` [Compound 78, 3-((3-(3-Fluorophenyl)-1H-indazol-1-yl)methyl)-5-phenylisoxazole]: the IC50 (TbTryS IC50) was > 100 µM.

Turning to `Cc1cc(Cn2nc(-c3cccc(F)c3)c3ccccc32)no1` [Compound 79, 3-((3-(3-Fluorophenyl)-1H-indazol-1-yl)methyl)-5-methylisoxazole], the IC50 (TbTryS IC50) was > 100 µM.

Regarding `CN1CCN(CCCNC(=O)Cn2nc(-c3cccc(F)c3)c3ccccc32)CC1` [Compound 80, 2-(3-(3-Fluorophenyl)-1H-indazol-1-yl)-N-(3-(4-methylpiperazin-1-yl)propyl)acetamide], the “LE (ligand efficiency)” value is reported as 0.28. Also, the IC50 (TbTryS IC50) was 0.83 µM.

Take `O=C(Cn1nc(-c2cccc(F)c2)c2ccccc21)NCCCn1ccnc1` [Compound 81, N-(3-(1H-Imidazol-1-yl)propyl)-2-(3-(3-fluorophenyl)-1H-indazol-1-yl)acetamide]: the “decrease in potency relative to 84” value is given as “eight” and the “LE (ligand efficiency)” value is given as 0.32. This compound also showed an IC50 (TbTryS IC50) of 0.35 µM.
